In article PMC11696576, “Next generation thiazolyl ketone inhibitors of cytosolic phospholipase A2 α for targeted cancer therapy” (Nature Communications, 2025):
“And” between values parts separate entries of the source, which are not always exact repeats. Equal values may be shown once. Read-outs that look alike come from different tables or passages of the source.

Tested on: panel of 66 cancer cell lines
Test: cancer cell line screen, proliferation assay (ATPlite, 72 h)
Assay type: cell-based, human
Conditions: for raw signal, dose-response (Figure S7a): rep1, rep2, listed as AVX420; for IC50: Homo sapiens
From the text: Targeting specific molecular vulnerabilities in cancer is considered a key approach to reducing the adverse effects of chemotherapy. However, the events that govern the susceptibility to suppression of the cPLA2α in cancer remain largely unexplored. We therefore took the approach of screening the antiproliferative activity of AVX420 in a panel of 66 cancer cell lines (hereafter referred to as the cancer cell line screen or CCLS) to allow us to investigate molecular and genetic vulnerabilities to the drug.
Screening of compound activities in 66 cancer cell lines was carried out at the Netherlands Translation Research Center. Briefly, proliferation assays were performed 72 h after compound addition using ATPlite 1step reagent (Perkin Elmer). IC50s calculated by non-linear regression analysis were used as a measure of compound activity for investigating associations with genetic factors. A complete description of the laboratory and data analysis methods are available in the Supplementary Information file (Supplemental Methods: Cancer Cell Line Screening).
Cancer cell line screening
Cell proliferation assays
All cell lines were from the American Type Culture Collection (ATCC) Manassas, Virginia (US) and maintained under ATCC-recommended protocols and within 9 pas- […]
DMSO at -80°C until one hour before use. Cells exposed within one hour after thaw-ing of the compound stocks. Final compound concentration range in the assay was 10 […]
cated by supplier. Compounds were dissolved in 100 % DMSO and stored at room temperature. Final concentration of the reference compounds in the assay was 3.16x10-5 M to 3.16x10-9 M. The final DMSO concentration during incubation was […]
Cell lines were plated in Advanced RPMI 1640 (Gibco, ref 12633-012) cell culture medium, containing 1% Glutamax solution (Gibco, ref 35050-038), 0.4% Pen Strep solution (Gibco, ref 15140-122) and bovine serum. The cPLA2α inhibitors were tested in 0.5% bovine serum (HyClone, ref SH30072.03) with the exception of769-P, A-204, BT-549, SR, T98G, which were tested in the presence of 1.0% serum and A-704 and LNCaP FGS, which were tested in the in the presence of 10% serum. Reference com-pounds were all tested in the presence of 10% bovine serum.
Cells were dispensed in a 384-well plate, at a concentration of 200 - 3200 cells per well, depending on the cell line, in 45 μL medium. Plated cells were incubated in a humidified atmosphere of 5% CO2 at 37 °C. After 24 hours, 5 μL of compound dilu-tion was added and plates were further incubated for another 72 hours. After 72 hours, 25 μL of ATPlite 1Step™ (PerkinElmer) solution was added to each well, and subse-quently shaken for 2 minutes. After 10 minutes of incubation in the dark, the lumines-cence was recorded on an Envision multimode reader (PerkinElmer).
Cell growth control. The cellular doubling times of all cell lines are calculated from the t = 0 hours and t = 72 hours growth signals of the untreated cells. If the doubling time is out of specification (0.5 – 2.0 times deviating from historic average) the assay […]
IC50s were calculated by non-linear regression using IDBS XLfit 5. The percentage growth after 72h (%-growth) was calculated as follows: 100% x (luminescence t = 72h / luminescence untreated,t=72h). This was fitted to the 10log compound concentration (conc) by a 4-parameter logistics curve: %-growth = bottom + (top – bottom) / (1+ 10(logIC50 – conc)*hill)), where hill is the Hill-coefficient, and bottom and top the asymptotic mini-mum and maximum cell growth that the compound allows in that assay.
All analysis were performed in the statistical software package R and visualized using GraphPad Prism version 10.0 .0

## CCCCCCCOc1ccc(OCC(=O)c2nc(C(=O)OC)cs2)cc1 [GK420]
10log of IC50 in nM, panel average
  average panel 10logIC50: 4.17
769P, kidney
  pIC50: 4,561
786O, kidney
  pIC50: 4,867
A172, central_nervous_system
  pIC50: 4,692
A204, soft_tissue
  pIC50: 4,646
A375, skin
  pIC50: 4,764
A388, cervix
  pIC50: 4,776
A427, lung
  pIC50: 4,923
A498, kidney
  pIC50: 4,615
A549, lung
  pIC50: 4,624
ACHN, kidney
  pIC50: 4,799
AN3CA, endometrium
  pIC50: 4,941
AU565, breast
  pIC50: 4,836
AsPC1, pancreas
  pIC50: 4,597
BT20, breast
  pIC50: 4,474
BT549, breast
  pIC50: 4,818
BxPC3, pancreas
  pIC50: 4,715
CAL27, upper_aerodigestive_tract
  pIC50: 4,804
CCRF-CEM, Log10 M -4
  raw signal, dose-response (Figure S7a): 5160 and 4973
CCRF-CEM, Log10 M -4.5
  raw signal, dose-response (Figure S7a): 1680 and 1133
CCRF-CEM, Log10 M -6
  raw signal, dose-response (Figure S7a): 1223867 and 1721613
CCRF-CEM, Log10 M -6.5
  raw signal, dose-response (Figure S7a): 5260280 and 5359267
CCRF-CEM, Log10 M -7
  raw signal, dose-response (Figure S7a): 5505373 and 6147053
CCRF-CEM, Log10 M -7.5
  raw signal, dose-response (Figure S7a): 5656213 and 5825533
CCRF-CEM, Log10 M -8
  raw signal, dose-response (Figure S7a): 5419560 and 5847920
COLO829, unknown
  pIC50: 4,761
Daoy, central_nervous_system
  pIC50: 4,867
DoTc24510, cervix
  pIC50: 4,743
HCT15, large_intestine
  pIC50: 4,945
HCT116, large_intestine
  pIC50: 4,795
769-P, read-out: IC50
  IC50: 27.5 µM
786-0, 786-O, read-out: IC50
  IC50: 13.6 µM
72 h, panel average, 72 h, read-out: average IC50 in the cancer cell line screen
  IC50: 18.4 µM
A 172, A-172, read-out: IC50
  IC50: 20.3 µM
A204, A-204, read-out: IC50
  IC50: 22.6 µM
A388, read-out: IC50
  IC50: 16.8 µM
A498, A-498, read-out: IC50
  IC50: 24.3 µM
A549, A-549, read-out: IC50
  IC50: 23.8 µM
A704, A704, kidney, read-out: pIC50 (converted)
  IC50: 34 µM
A704, A-704, read-out: IC50
  IC50: > 100 µM
A-375, A375, read-out: IC50
  IC50: 17.2 µM
A-427, A-427, read-out: IC50
  IC50: 11.9 µM
ACHN, read-out: IC50
  IC50: 15.9 µM
AN3-CA, AN3 CA, read-out: IC50
  IC50: 11.4 µM
ASPC1, AsPC-1, read-out: IC50
  IC50: 25.3 µM
AU565, AU-565, read-out: IC50
  IC50: 14.6 µM
BT-20, BT-20, read-out: IC50
  IC50: 33.6 µM
BT-549, BT-549, read-out: IC50
  IC50: 15.2 µM
BXPC-3, BxPC-3, read-out: IC50
  IC50: 19.3 µM
C-33-A, C33A, cervix, read-out: pIC50 (converted)
  IC50: 1.74 µM
C-33-A, C-33 A, read-out: IC50
  IC50: 1.74 µM
CAL-27, CAL 27, read-out: IC50
  IC50: 15.7 µM
CCRF-CEM, CCRFCEM, blood, read-out: pIC50 (converted)
  IC50: 0.708 µM
CCRF-CEM, read-out: IC50
  IC50: 0.708 µM
COLO 205, COLO 205, read-out: IC50
  IC50: 22.3 µM
COLO-829, COLO 829, read-out: IC50
  IC50: 17.3 µM
DLD-1, DLD1, large_intestine, read-out: pIC50 (converted)
  IC50: 13.8 µM
DLD-1, DLD-1, read-out: IC50
  IC50: 13.8 µM
DU-145, DU 145, read-out: IC50
  IC50: 25.3 µM
Daoy, read-out: IC50
  IC50: 13.6 µM
DoTc2-4510, DoTc2 4510, read-out: IC50
  IC50: 18.1 µM
FaDu, upper_aerodigestive_tract, read-out: pIC50 (converted)
  IC50: 25.7 µM
FaDu, read-out: IC50
  IC50: 25.7 µM
HCT-15, HCT-15, read-out: IC50
  IC50: 11.4 µM
HCT-116, HCT 116, read-out: IC50
  IC50: 16 µM
Hs-578T, Hs 578T, read-out: IC50
  IC50: 14.7 µM
J82, J82, read-out: IC50
  IC50: 19.2 µM
Jurkat E6.1, Jurkat E6.1, read-out: IC50
  IC50: 0.569 µM
K562, K-562, read-out: IC50
  IC50: 15.3 µM
KU812, KU812, read-out: IC50
  IC50: 9.13 µM
LNCaP, LNCaP FGC, read-out: IC50
  IC50: 91.7 µM
LS174T, LS 174T, read-out: IC50
  IC50: 20.3 µM
LoVo, read-out: IC50
  IC50: 16.6 µM
MCF7, MCF7, read-out: IC50
  IC50: 14.7 µM
MG-63, MG-63, read-out: IC50
  IC50: 22.7 µM
MIA PaCa-2, MIA PaCa-2, read-out: IC50
  IC50: 13.1 µM
MOLT-4, MOLT-4, read-out: IC50
  IC50: 4.07 µM
MeWo, read-out: IC50
  IC50: 19.5 µM
NCI-H82, NCI-H82, read-out: IC50
  IC50: 4.84 µM
NCI-H460, NCI-H460, read-out: IC50
  IC50: 32.5 µM
OVCAR-3, OVCAR-3, read-out: IC50
  IC50: 13.7 µM
PA1, ovary, read-out: pIC50 (converted)
  IC50: 2.88 µM
PA-1, PA-1, read-out: IC50
  IC50: 2.88 µM
RKO, read-out: IC50
  IC50: 10.1 µM
RPMI-7951, RPMI-7951, read-out: IC50
  IC50: 14.1 µM
RT-4, RT4, read-out: IC50
  IC50: 33.4 µM
SHP77, SHP-77, read-out: IC50
  IC50: 13.8 µM
